Holding throughout (type): in vivo, Mice (C57B16)
Data set [1] concerns Lewis Lung Carcinoma (LLC). As to the kind of experiment: Tumor response in mice bearing LLC tumor during and after treatment with small peptides (Example II). Particulars: for tumor volume day 21: average tumor volume on day 21, s.c. LLC, i.p. injection Mon/Wed/Fri; for tumor volume day 21 / mice showing a tumor response: 6 mice per group; for tumor control: mice with complete tumor control for 56 days / mice in group; for Response rate CR: number of mice with complete response; for Response rate CR / Response rate NC / Response rate PR / Response rate PD: of 6; for Response rate NC: number of mice with no change (stable disease); for Response rate PR: number of mice with partial remission; for Response rate PD: number of mice with progressive disease; for mice showing a tumor response: response = maximally a growth of 25% within seven days; for effect on tumor growth / tumor growth curves compared with thalidomide: result in words; for effect on tumor growth: i.p. peptide, LLC tumor; for tumor growth curves compared with thalidomide: FIG. 1. On the procedure: Animals and tumor model: Mice (C57B16) are transplanted with the syngeneic Lewis Lung Carcinoma (LLC) subcutaneously.
Treatment modalities: mice are treated with small peptides or control substances beginning on the day of transplantation by i.p. injection. Mice are injected on Monday, Wednesday and Friday, until end of experiment. Experiment ends are based on: tumor size >20 mm, suffering of the animal, weight loss over 20%, ulcerations etc. Otherwise the experiment is terminated eight weeks after start.
Tumor diameter is measured in two directions by caliper measurements and tumor volume (V) is calculated using the formula V=0.4(A^2×B) (where B represents the largest diameter and A the diameter perpendicular to B). The classification of tumor response is: progressive disease (PD), increase of tumor volume (>50%) within seven days (between day 3 and day 10 after begin of treatment); stable disease, tumor volume equal to volume at day 3 in a range of −25% and +25%; partial remission (R), tumor volume −25% to −90%, and complete response CR, (no) measurable tumor at 56 days after start of treatment.
Tumor growth evaluation is terminated when a tumor diameter of 20 mm is reached.
Mice were treated with i.p. injections of peptides 24 hours after implantation of LLC tumor. In all mice receiving PBS tumor developed which reached on average a tumor volume of 1600 mm^3 in 21 days. Approximately tumor diameter was at that time point 16 mm. Thalidomide was used as a positive control.

Data set [2] deals with Lewis Lung Carcinoma (LLC). As to the kind of experiment: Escalating doses of peptide LQGV in Lewis Lung Carcinoma-bearing mice (Example III). Particulars: for PD: number of mice with progressive disease (outgrowth); for TR: number of mice with tumor response (growth delay till day 20); for RR: tumor response rate. On the procedure:
FIG. 3 Tumor volume of Lewis Lung Carcinoma-bearing C57B16 mice treated with escalating doses of peptide LQGV (SEQ ID NO:1). Doses of 1.7, 5, 17, 50 and 170 mg/kg were tested.
Animals and tumor model. Mice (C57B16) are transplanted with the syngeneic Lewis Lung Carcinoma (LLC) subcutaneously. Treatment is stared 24 hours after implantation. The number of animals is eight per group to increase the power of this study. As we are starting the treatment when no tumor is palpable the change of error is larger compared to a study with established tumors. Treatment modalities: mice are treated with small peptides or sham control beginning one day after transplantation by i.p. injection. Mice will be injected on Monday, Wednesday and Friday, until end of experiment. Experiment ends based on criteria as tumor size >20 mm, suffering of the animal, weight loss over 20%, ulcerations. Otherwise the experiment will be terminated eight weeks after start.
Tumor diameter is measured in two directions by caliper measurements and tumor volume (V) is calculated using the formula V=0.4(A2×B) (where B represents the largest diameter and A the diameter perpendicular to B). The classification of tumor response is: progressive disease (PD), increase of tumor volume (>25%) within seven days; no change (NC), tumor volume equal to volume at start of treatment in a range of −25% and +25%; partial remission (PR), decrease of tumor volume between −25% and −90%; complete remission (CR), tumor volume less than 10% of initial volume. Tumor growth evaluation is terminated when a tumor diameter of 20 mm is reached.
Tumor volumes were analyzed using non-parametric testing for multiple groups (Kruskal Wallis) and pair wise comparison of the different groups using Mann Whitney.
Tumor response was evaluated slightly differently from proposed. As we start shortly after tumor induction, shrinkage of the tumor compared to before treatment cannot be made. […] So during the experimental time-frame outgrowth (progressive disease, PD) and tumor response (TR, growth delay till day 20) was evaluated. In Table 3 response rates are depicted.

Data set [3] in a line: Toxicity during escalating dose experiment: animal weight, blood markers, leukocyte count (Example III). On the procedure:
FIG. 5. During the escalating dose experiment toxicity of LQGV (SEQ ID NO:1) was evaluated by evaluation of blood markers for kidney and liver function and leukocyte count.
FIG. 6. During the escalating dose experiment toxicity of LQGV (SEQ ID NO:1) was evaluated by monitoring of animal weight.
Assessment of side-effects. Side-effects are monitored on daily basis. a) Weight of the animals is monitored daily. b) Behavior of the animals is observed. c) Animals are checked for possible side effects such as diarrhea.
During the experiment toxicity of the administered peptides was evaluated by monitoring of animal weight (FIG. 6) and by evaluation of blood markers for kidney and liver function and leukocyte count (FIG. 5). […] It is important to compare not only between the groups but also within the groups between individual mice.

The mark [4] stands for this setting: escalating dose experiment, FIG. 5.

“Also recorded” adds a separate entry of the source. Peptide text beside a SMILES is read from it.

On to “VLPALP (Chemically synthesized antitumor peptide VLPALP) [6-mer peptide]”, for which, in data set [1], the “tumor volume day 21” value turned out to be 880 mm^3, the tumor control is on record as 3/6, the “Response rate CR” value stood at 2 and the “Response rate NC” value was 2. In data set [1], the “Response rate PR” value is recorded as 1, the “Response rate PD” value came out at 1, the “mice showing a tumor response” value was “five out of six” and the “effect on tumor growth” value was “tumor growth delay”.

On to LQG, for which, in data set [1], the “tumor growth curves compared with thalidomide” value is listed as “comparable to Thalidomide; also recorded: comparable tumor growth curves”, the “tumor volume day 21” value was 620 mm^3, the tumor control is recorded as 3/6 and the “Response rate CR” value was determined as 2. Also, in data set [1], the “Response rate NC” value is reported as 4, the “mice showing a tumor response” value was “all animals” and the “effect on tumor growth” value is “tumor growth delay”.

For the compound “Leu Ala Gly Val (LAGV; Chemically synthesized antitumor peptide LAGV) [4-mer peptide, derivative of LQGV]”, in data set [1], the “tumor volume day 21” value turned out to be 1600 mm^3, the tumor control is 2/6, the “Response rate CR” value amounted to 1 and the “Response rate NC” value is on record as 1. Also, in data set [1], the “Response rate PR” value is given as 1 and the “Response rate PD” value is on record as 3.

`O=C1CCC(N2C(=O)c3ccccc3C2=O)C(=O)N1` (stereo not drawn) [Thalidomide, reference compound]: in data set [1], the “tumor volume day 21” value is on record as 340 mm^3, the tumor control was 3/6, the “Response rate CR” value stood at 2 and the “Response rate NC” value is on record as 3. Besides, in data set [1], the “Response rate PR” value was 1 and the “mice showing a tumor response” value is “all animals”. Further, the “effect on tumor growth” value in data set [2] (positive control group, result in words) is on record as “only some tumor growth delay”.

Consider LAG, for which, in data set [1], the “tumor volume day 21” value came out at 1550 mm^3, the tumor control is reported as 2/6, the “Response rate CR” value was 1 and the “Response rate PR” value is given as 1. Moreover, in data set [1], the “Response rate PD” value turned out to be 4.

In the case of “Ala Gln Gly Val (AQGV; Chemically synthesized antitumor peptide AQGV) [4-mer peptide, derivative of LQGV]”, in data set [1], the “tumor volume day 21” value turned out to be 1030 mm^3, the tumor control is on record as 2/6, the “Response rate NC” value worked out at 1 and the “Response rate PR” value is reported as 2. Besides, in data set [1], the “Response rate PD” value was 3 and the “effect on tumor growth” value was “tumor growth delay”.

As to `CC(C)C[C@H](N)C(=O)N[C@@H](CCC(N)=O)C(=O)NCC(=O)N[C@H](C(=O)O)C(C)C` [LQGV, Leu Gln Gly Val] (H-LQGV-OH), in data set [1], the “tumor growth curves compared with thalidomide” value is given as “comparable to Thalidomide; also recorded: comparable tumor growth curves”, the “tumor volume day 21” value worked out at 270 mm^3, the tumor control was 2/6 and the “Response rate CR” value is recorded as 2. In data set [1], the “Response rate NC” value is listed as 2, the “Response rate PR” value came out at 1, the “Response rate PD” value is reported as 1 and the “mice showing a tumor response” value was “five out of six”. In data set [1], the “effect on tumor growth” value is “strong tumor growth delay”. In data set [2] (1.7 mg/kg i.p.), the PD came to 9, the TR came out at 2 and the RR amounted to 18%. Also, in data set [2] (5 mg/kg i.p.), the PD is on record as 4, the TR is 7 and the RR is 64%. In data set [2] (17 mg/kg i.p.), this compound came in with a PD of 2, a TR of 9 and an RR of 82%. Besides, in data set [2] (50 mg/kg i.p.), the PD was determined as 4, the TR turned out to be 7 and the RR was 64%. Also, the “effect on tumor growth” value in data set [2] (50 mg/kg, result in words) is “strongly inhibited tumor growth”. Moreover, in data set [2] (170 mg/kg i.p.), the PD is 4, the TR was 7 and the RR was found to be 64%. In addition, the “effect on tumor growth” value in data set [2] (dose of 5 mg/kg, result in words) is “a delay in tumor growth was observed”. In addition, in data set [2] (higher dosages (above 5 mg/kg), result in words), the “delay in tumor growth relative to 5 mg/kg” value was “more pronounced”. The “effect on animal weight” value in data set [3] (at all doses (1.7-170 mg/kg), FIG. 6) is “no effect on animal weight”. In data set [3] (setting [4]), the “effect on leukocyte number” value was “no effect on leukocyte number”; the “effect on liver and kidney parameters (blood markers)” value was “did not affect the liver and kidney parameters”.
